Literature values, collected in patent US11648207B1, “Extended release pharmaceutical composition of Clozapine” (priority 2021, dated 2023).

Tests used:
[1] = in vivo

**Q.** For `CN1CCN(C2=Nc3cc(Cl)ccc3Nc3ccccc32)CC1` [Clozapine, 8-chloro-11-(4-methyl-1-piperazinyl)-5H-dibenzo[b,e][1,4]diazepine], which mean terminal half-life [1] is on record?
**A.** 12 h

**Q.** What about the solubility in water of the same compound?
**A.** very slightly soluble in water
